The results in this text go back to US20250064740A1, “MULTI-VESICULAR LIPID NANOPARTICLE TOLEROGENIC VACCINES FOR INDUCTION OF SYSTEMIC IMMUNE TOLERANCE IN VIVO” (KARMA BIOTECHNOLOGIES, priority 2022, published 2025).

The test system of assay [1] is murine bone marrow-derived macrophages. Kind of assay: In vitro immunogenicity: TNFa release by ELISA. It is filed as cell-based, mouse. As to conditions: positive controls. An excerpt:
TNFa release was quantitated by ELISA. Bar charts show mean TNFa release per treatment group (n=3 replicates per treatment group). Error bars indicate SEM. Filled circles indicate mean TNFa release for each individual replicate for each treatment group. Colors of filled circles indicate treatment group.

The next assay deals with HepG2 cells. Kind of assay: SNIPR [pEGFP] transfection of a liver cell line with caveolin inhibitor. The note with it: MbC 15 uM, 1 h pretreatment, 48 h. Type of assay: cell-based.
Another assay deals with Jurkat cells. Kind of assay: SNIPR uptake/transfection of a T cell line with endocytosis inhibitors. Type of assay: cell-based. The note with it: MbC 15 uM, 1 h pretreatment.

lipopolysaccharide [LPS]: the TNFa release result in assay [1] is listed as “strongly elicited”.

Methyl-beta-cyclodextrin [MbC]: the “Transfection of a liver cell line by pDNA-loaded SNIPR nanoparticles in presence of inhibitor” value with HepG2 cells is given as “abrogated”. For the same substance, in the assay with Jurkat cells, the “Transfection of a T cell line by pDNA-loaded SNIPR nanoparticles in presence of inhibitor” value is on record as “abrogated”.
